{"source": "paper PMC7413254", "about": "(Nature Communications, 2020)", "key": {"[1]": {"molecular_target": "T1, PfNT1 (Plasmodium falciparum, UniProt Q8IDM6)", "T1 construct": "expressed in transfected cells; host or cells: Xenopus laevis oocytes (stage V-VI), cRNA-injected", "test": "cell-based", "format": "cell-based", "how_it_was_run": "(§1)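 Transport measured in Xenopus oocytes expressing the transporters, 1.5 h at 27.5 °C in ND96 pH 5.5 unless noted. For trans-stimulation, VF-6 injected in 25 nL ND96 at pH 5.0–7.0 or Na^+-free (choline) buffer; intracellular levels based on ~400 nL oocyte volume. Ten oocytes per treatment, ≥4 experiments.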"}, "[2]": {"molecular_target": "PfCRT^Dd2 (Plasmodium falciparum, UniProt Q9N623, A220S/I356T/K76T/M74I/N326S/N75E/Q271E/R371I)", "sequence (Q9N623 whole entry A220S/I356T/K76T/M74I/N326S/N75E/Q271E/R371I)": "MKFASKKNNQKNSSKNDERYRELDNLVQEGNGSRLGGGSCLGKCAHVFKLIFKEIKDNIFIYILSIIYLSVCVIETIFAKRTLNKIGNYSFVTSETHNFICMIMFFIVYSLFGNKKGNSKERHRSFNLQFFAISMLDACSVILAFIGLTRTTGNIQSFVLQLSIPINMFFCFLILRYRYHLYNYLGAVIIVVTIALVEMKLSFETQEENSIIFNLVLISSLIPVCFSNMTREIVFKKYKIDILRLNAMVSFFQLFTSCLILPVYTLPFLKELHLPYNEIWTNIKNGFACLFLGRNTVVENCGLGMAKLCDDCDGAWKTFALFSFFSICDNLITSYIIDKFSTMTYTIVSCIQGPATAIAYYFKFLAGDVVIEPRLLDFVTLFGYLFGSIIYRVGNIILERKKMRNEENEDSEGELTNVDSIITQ", "test": "cell-based", "format": "cell-based", "details": "[…]; for activity at 45000 µM: [test solute]i = 45 mM (30 mM for some solutes due to solubility)", "how_it_was_run": "as §1"}, "[3]": {"molecular_target": "T2, PfCRT^3D7 (Plasmodium falciparum, UniProt Q8IBZ9)", "T2 sequence (Q8IBZ9 59-398)": "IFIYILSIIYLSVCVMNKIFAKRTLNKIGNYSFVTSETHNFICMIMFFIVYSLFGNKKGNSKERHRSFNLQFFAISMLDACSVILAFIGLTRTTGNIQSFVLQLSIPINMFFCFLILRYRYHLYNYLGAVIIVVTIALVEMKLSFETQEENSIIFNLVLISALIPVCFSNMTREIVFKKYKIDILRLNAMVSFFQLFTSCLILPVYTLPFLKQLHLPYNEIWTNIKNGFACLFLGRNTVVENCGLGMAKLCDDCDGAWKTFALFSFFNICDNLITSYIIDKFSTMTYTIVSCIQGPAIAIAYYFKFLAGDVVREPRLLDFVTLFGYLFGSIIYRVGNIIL", "test": "cell-based", "format": "cell-based", "how_it_was_run": "as §1"}, "[4]": {"molecular_target": "PfCRT^Ecu1110 (Plasmodium falciparum, UniProt Q9N623, A220S/I356L/K76T/N326D)", "sequence (Q9N623 whole entry A220S/I356L/K76T/N326D)": "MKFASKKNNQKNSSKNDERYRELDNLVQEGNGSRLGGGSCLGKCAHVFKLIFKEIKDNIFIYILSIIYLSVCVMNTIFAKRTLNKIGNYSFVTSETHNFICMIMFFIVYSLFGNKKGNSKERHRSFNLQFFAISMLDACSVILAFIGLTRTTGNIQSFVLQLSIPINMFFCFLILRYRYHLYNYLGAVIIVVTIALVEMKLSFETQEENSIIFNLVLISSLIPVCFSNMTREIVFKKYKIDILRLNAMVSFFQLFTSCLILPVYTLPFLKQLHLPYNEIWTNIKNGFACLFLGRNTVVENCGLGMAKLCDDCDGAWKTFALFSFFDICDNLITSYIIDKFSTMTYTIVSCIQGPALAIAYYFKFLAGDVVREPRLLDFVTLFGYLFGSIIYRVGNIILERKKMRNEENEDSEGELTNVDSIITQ", "test": "cell-based", "format": "cell-based", "details": "[…]", "how_it_was_run": "as §1"}, "[5]": {"system": "PfCRT", "test": "Potential co-substrates tested for influx of VF-6 via PfCRT into the oocyte", "format": "cell-based, Plasmodium falciparum", "design": "key: X: Compounds that have been tested as potential co-substrates but are not required for influx of VF-6 via PfCRT into the oocyte"}, "[6]": {"molecular_target": "T2, PfCRT^3D7", "test": "cell-based", "format": "cell-based", "details": "total [3H]CQ transport; for inhibition at 500 µM: [test solute] = 0.5 mM; for inhibition at 1000 µM: [test solute] = 1 mM; for inhibition at 2000 µM: [test solute] = 2 mM", "how_it_was_run": "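Washed oocytes (ten per treatment) were exposed to label in pH 5.5 ND96 for 1.5 h at 27.5 °C. Buffer was then removed, cells rinsed in ice-cold ND96, lysed in SDS and counted.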"}, "[7]": {"system": "non-expressing oocytes", "format": "cell-based, Xenopus laevis", "details": "total [3H]CQ transport; for Uptake of [3H]CQ (% non-expressing oocyte control), trans-stimulation: non-expressing oocytes, normalised to the oocyte type control; for Uptake of [3H]CQ (% PfCRTDd2 control), trans-stimulation, non-expressing oocytes: mean ± SEM, SEM", "how_it_was_run": "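Oocytes (ten per treatment, ≥4 independent frogs/days) were preloaded by injecting VF-6 in 25 nL ND96 at pH 5.0, 5.5, 6.0 or 7.0, or Na^+-free choline buffer, then uptake run 1.5 h, 27.5 °C, ND96 pH 5.5 by default. Internal concentrations assumed ~400 nL oocyte volume.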"}, "[8]": {"details": "PfCRT3D7 oocytes, normalised to the oocyte type control, read-out: Uptake of [3H]CQ (% PfCRT3D7 control), cis-inhibition"}, "[9]": {"details": "mean ± SEM, SEM, read-out: Uptake of [3H]CQ (% PfCRTDd2 control), cis-inhibition, PfCRT3D7"}}, "note": "Where two headings read alike, the source gives them in different places."}
{"smiles": "CC(C)[C@H](N)C(=O)O", "note": "[L-valine]", "values": [{"measurement": "activity at 45000 µM", "setting": "[1]; […], read-out: Uptake of [3H]CQ (% PfNT1 control), trans-stimulation", "result": "100 ± 3.2", "unit": "%"}, {"measurement": "activity at 5000 µM", "setting": "[1]; total [3H]CQ transport, [test solute]i = 5 mM (intracellular), mean ± SEM, SEM, read-out: Uptake of [3H]CQ (% PfCRTDd2 control), trans-stimulation, PfNT1", "result": "2.7 ± 0.01", "unit": "%"}, {"measurement": "activity at 5000 µM", "setting": "[2]; pH 5.5, read-out: PfCRT-mediated [3H]CQ transport, trans-stimulation (% PfCRTDd2 control), [test solute]i = 5 mM (intracellular), PfCRTDd2 oocytes, normalised to oocyte type control", "result": "97 ± 4.2", "unit": "%"}, {"measurement": "activity at 5000 µM", "setting": "[2]; pH 5.5, read-out: Uptake of [3H]CQ (% PfCRTDd2 control), trans-stimulation, PfCRTDd2, total [3H]CQ transport, [test solute]i = 5 mM (intracellular), mean ± SEM, SEM", "result": "99 ± 3.2", "unit": "%"}, {"measurement": "activity at 5000 µM", "setting": "[2]; pH 5.5, read-out: Uptake of [3H]CQ (% PfCRTDd2 control), trans-stimulation, PfCRTDd2 oocytes, [test solute]i = 5 mM, total [3H]CQ transport, normalised to the oocyte type control", "result": "99 ± 3.2", "unit": "%"}, {"measurement": "activity at 45000 µM", "setting": "[2]; pH 5.5, read-out: Uptake of [3H]CQ (% PfCRTDd2 control), trans-stimulation, PfCRTDd2 oocytes, total [3H]CQ transport, normalised to the oocyte type control", "result": "97 ± 1.1", "unit": "%"}, {"measurement": "activity at 5000 µM", "setting": "[2]; pH 5.5, read-out: [3H]CQ transport (% PfCRTDd2 control), trans-stimulation, PfCRTDd2, trans-stimulation, [test solute]i = 5 mM (injected), PfCRT-mediated component (background subtracted), mean ± SEM, SEM", "result": "97 ± 4.2", "unit": "%"}, {"measurement": "activity at 45000 µM", "setting": "[2]; pH 5.5, read-out: [3H]CQ transport (% PfCRTDd2 control), trans-stimulation, PfCRTDd2, trans-stimulation, PfCRT-mediated component (background subtracted), mean ± SEM, SEM", "result": "95 ± 2.5", "unit": "%"}, {"measurement": "activity at 5000 µM", "setting": "[3]; PfCRT3D7 oocytes, [test solute]i = 5 mM, total [3H]CQ transport, normalised to the oocyte type control, read-out: Uptake of [3H]CQ (% PfCRT3D7 control), trans-stimulation", "result": "98 ± 4.2", "unit": "%"}, {"measurement": "[3H]CQ transport (% PfCRT3D7 control), trans-stimulation, PfCRT3D7", "setting": "[3]; SEM", "result": "0.3 ± 0.01", "unit": "% PfCRT3D7 control"}, {"measurement": "activity at 5000 µM", "setting": "[3]; [test solute]i = 5 mM (intracellular), PfCRT3D7 oocytes, normalised to oocyte type control, read-out: PfCRT-mediated [3H]CQ transport, trans-stimulation (% PfCRT3D7 control)", "result": "96 ± 3.3", "unit": "%"}, {"measurement": "activity at 45000 µM", "setting": "[3]; SEM, read-out: Uptake of [3H]CQ (% PfCRTDd2 control), trans-stimulation, PfCRT3D7", "result": "3.3 ± 0.01", "unit": "%"}, {"measurement": "activity at 45000 µM", "setting": "[3]; read-out: PfCRT-mediated [3H]CQ transport, trans-stimulation (% PfCRT3D7 control)", "result": "96 ± 2.4", "unit": "%"}, {"measurement": "activity at 45000 µM", "setting": "[3]; read-out: Uptake of [3H]CQ (% PfCRT3D7 control), trans-stimulation", "result": "98 ± 3.7", "unit": "%"}, {"measurement": "activity at 5000 µM", "setting": "[3]; total [3H]CQ transport, [test solute]i = 5 mM (intracellular), mean ± SEM, SEM, read-out: Uptake of [3H]CQ (% PfCRTDd2 control), trans-stimulation, PfCRT3D7", "result": "3.3 ± 0.05", "unit": "%"}, {"measurement": "activity at 5000 µM", "setting": "[4]; pH 5.5, read-out: PfCRT-mediated [3H]CQ transport, trans-stimulation (% PfCRTEcu1110 control), [test solute]i = 5 mM (intracellular), PfCRTEcu1110 oocytes, normalised to oocyte type control", "result": "96 ± 3.3", "unit": "%"}, {"measurement": "activity at 5000 µM", "setting": "[4]; pH 5.5, read-out: Uptake of [3H]CQ (% PfCRTEcu1110 control), trans-stimulation, PfCRTEcu1110 oocytes, [test solute]i = 5 mM, total [3H]CQ transport, normalised to the oocyte type control", "result": "98 ± 3.6", "unit": "%"}, {"measurement": "activity at 45000 µM", "setting": "[4]; pH 5.5, read-out: Uptake of [3H]CQ (% PfCRTEcu1110 control), trans-stimulation, PfCRTEcu1110 oocytes, [test solute]i = 45 mM (30 mM for some solutes due to solubility), total [3H]CQ transport, normalised to the oocyte type control", "result": "100 ± 2.5", "unit": "%"}, {"measurement": "activity at 5000 µM", "setting": "[4]; read-out: Uptake of [3H]CQ (% PfCRTDd2 control), trans-stimulation, PfCRTEcu1110, total [3H]CQ transport, [test solute]i = 5 mM (intracellular), mean ± SEM, SEM", "result": "35 ± 1.6", "unit": "%"}, {"measurement": "activity at 45000 µM", "setting": "[4]; read-out: Uptake of [3H]CQ (% PfCRTDd2 control), trans-stimulation, PfCRTEcu1110, total [3H]CQ transport, [test solute]i = 45 mM (intracellular; 30 mM for some solutes due to solubility), mean ± SEM, SEM", "result": "36 ± 1.4", "unit": "%"}, {"measurement": "Tested as potential co-substrate but not required for influx of VF-6 via PfCRT into the oocyte", "setting": "[5]", "result": "X"}, {"measurement": "inhibition at 500 µM", "setting": "[6]; [8]", "result": "99 ± 3.6", "unit": "%"}, {"measurement": "inhibition at 1000 µM", "setting": "[6]; [8]", "result": "99 ± 3.9", "unit": "%"}, {"measurement": "inhibition at 2000 µM", "setting": "[6]; [8]", "result": "100 ± 5.5", "unit": "%"}, {"measurement": "inhibition at 500 µM", "setting": "[6]; [9]", "result": "3.1 ± 0.07", "unit": "%"}, {"measurement": "inhibition at 1000 µM", "setting": "[6]; [9]", "result": "3.4 ± 0.01", "unit": "%"}, {"measurement": "inhibition at 2000 µM", "setting": "[6]; [9]", "result": "3.4 ± 0.04", "unit": "%"}, {"measurement": "Uptake of [3H]CQ (% non-expressing oocyte control), trans-stimulation", "setting": "[7]; [test solute]i = 5 mM", "result": "99 ± 4.1 % non-expressing oocyte control"}, {"measurement": "Uptake of [3H]CQ (% non-expressing oocyte control), trans-stimulation", "setting": "[7]; [test solute]i = 45 mM (30 mM for some solutes due to solubility)", "result": "100 ± 2.6 % non-expressing oocyte control"}, {"measurement": "Uptake of [3H]CQ (% PfCRTDd2 control), trans-stimulation, non-expressing oocytes", "setting": "[7]; [test solute]i = 5 mM (intracellular)", "result": "2.6 ± 0.08", "unit": "% PfCRTDd2 control"}, {"measurement": "Uptake of [3H]CQ (% PfCRTDd2 control), trans-stimulation, non-expressing oocytes", "setting": "[7]; [test solute]i = 45 mM (intracellular; 30 mM for some solutes due to solubility)", "result": "2.7 ± 0.03", "unit": "% PfCRTDd2 control"}]}
